Measured values: patent publication US8748457B2, “2-amino-2- [8-(dimethyl carbamoyl)- 8-aza- bicyclo [3.2.1] oct-3-yl]-exo- ethanoyl derivatives as potent DPP-IV inhibitors” (Lupin Limited, priority 2009, dated 2014)
Counter-ions that a name gives are not always drawn. Like-named read-outs stand apart in the source and are kept apart here.

How the values were obtained:
human recombinant DPP-IV = target: T1, human recombinant DPP-IV (Homo sapiens, UniProt P27487); experiment: Inhibition of human recombinant DPP-IV (Gly-Pro-AMC fluorometric assay); type: biochemical
T1 construct: purchased R&D Systems, USA
Experimental: Inhibition of Human Recombinant DPP-IV
The proteolytic activity of human recombinant DPP-IV was determined by following the hydrolysis of Gly-Pro-7-amino-4-methylcoumarin (Gly-Pro-AMC) and the fluorometric quantitation of the liberated AMC. Assays were routinely carried out in 96-well flat-bottom black microwell plates. The reaction mixture (100 μl) contained 10 ng of human recombinant DPP-IV enzyme (produced in-house or procured from R&D Systems, USA) in the assay buffer (25 mM Tris-HCl, pH 7.4, 140 mM NaCl, 10 mM KCl and 0.1 mg/ml BSA) and 50 μM Gly-Pro-AMC. After incubation of assay plates at 30° C. for 30 min, the hydrolysis of Gly-Pro-AMC was monitored in a fluorescence microplate reader (Molecular Devices SpectraMax M5), with excitation and emission wavelengths set at 360 nm and 460 nm, respectively.
The inhibition of DPP-IV activity by test compounds was routinely performed by preincubating the enzyme with test compound (10 and 100 nM for primary screening and 8 concentrations from 0.1 to 1000 nM for the dose-response study) or vehicle (0.01% DMSO) for 15 min at 30° C., in a total volume of 90 μl. Test compounds were dissolved in DMSO at a concentration of 10 mM and serially diluted further in assay buffer. The enzyme reaction was initiated by the addition of Gly-Pro-AMC, followed by incubation of assay plates for 30 min at 30° C. and the liberated AMC was measured as described above. A known inhibitor of DPP-IV (positive control) was always included in the assay. Test compounds at various concentrations were always evaluated in duplicate, along with substrate blanks, vehicle controls and positive controls.
The results are expressed as percent inhibition of the enzyme activity relative to vehicle controls. Dose-response studies were conducted for those compounds exerting ≧50% inhibition of activity at 10 nM in primary screening. IC50, defined as the inhibitor concentration which caused a 50% decrease of the activity under assay conditions, was computed using GraphPad Prism software, version 5.0. […]

plasma DPP-IV = target: T2, plasma DPP-IV (Canis lupus familiaris, UniProt A0A8I3Q2I8); experiment: Measurement of plasma DPP-IV activity in Beagle dogs; type: in vivo; conditions: dog, male Beagle dogs, single oral dose 3 mg/kg p.o.
T2 construct: from tissue; host or cells: EDTA-plasma of male Beagle dogs after oral dosing (ex vivo)
Experimental: A. Measurement of Plasma DPP-IV Activity in Beagle Dogs
Overnight-fasted male animals were administered either vehicle or single oral dose of compound. Blood samples were collected prior to dosing and for 12 hours post dose into tubes containing EDTA. EDTA-plasma was separated and DPP-IV activity was measured using a fluorometric assay. Assays were carried out in 96-well flat-bottom black microwell plates. A typical reaction contained 25 μl plasma, 50 μl of 50 μM substrate (Gly-Pro-AMC) and 25 μl assay buffer (25 mM Tris-HCl, pH 7.4, 140 mM NaCl, 10 mM KCl and 1% BSA) in a total reaction volume of 100 μl. Plasma samples were incubated with the substrate for 30 min at 30° C., following which the fluorescence was measured in a microplate fluorescence reader (POLARstar Galaxy), with excitation and emission wavelengths set at 360 nm and 460 nm, respectively. Percent inhibition in plasma DPP-IV activity due to compounds was calculated by comparing with plasma from vehicle-treated animals.

T2 sequence (A0A8I3Q2I8 1-765): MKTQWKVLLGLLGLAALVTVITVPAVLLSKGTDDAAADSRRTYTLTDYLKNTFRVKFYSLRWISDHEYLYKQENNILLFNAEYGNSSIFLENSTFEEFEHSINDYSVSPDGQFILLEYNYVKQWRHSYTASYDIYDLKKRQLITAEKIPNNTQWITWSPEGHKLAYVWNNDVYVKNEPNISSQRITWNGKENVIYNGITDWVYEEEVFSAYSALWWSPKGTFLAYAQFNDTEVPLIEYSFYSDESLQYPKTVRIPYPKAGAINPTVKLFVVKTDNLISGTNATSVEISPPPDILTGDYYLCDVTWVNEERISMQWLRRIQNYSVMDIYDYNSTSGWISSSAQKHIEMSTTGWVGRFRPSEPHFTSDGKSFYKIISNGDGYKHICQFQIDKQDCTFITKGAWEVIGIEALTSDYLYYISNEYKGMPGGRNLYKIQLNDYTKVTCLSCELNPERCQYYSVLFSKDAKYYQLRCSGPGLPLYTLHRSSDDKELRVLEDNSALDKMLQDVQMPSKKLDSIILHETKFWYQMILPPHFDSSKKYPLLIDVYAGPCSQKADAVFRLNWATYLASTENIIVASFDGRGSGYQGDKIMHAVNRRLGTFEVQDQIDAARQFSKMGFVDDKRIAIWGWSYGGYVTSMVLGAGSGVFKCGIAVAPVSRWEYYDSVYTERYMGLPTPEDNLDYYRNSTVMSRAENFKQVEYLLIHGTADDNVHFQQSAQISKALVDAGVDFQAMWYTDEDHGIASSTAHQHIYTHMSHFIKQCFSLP
T1 sequence (P27487 whole entry): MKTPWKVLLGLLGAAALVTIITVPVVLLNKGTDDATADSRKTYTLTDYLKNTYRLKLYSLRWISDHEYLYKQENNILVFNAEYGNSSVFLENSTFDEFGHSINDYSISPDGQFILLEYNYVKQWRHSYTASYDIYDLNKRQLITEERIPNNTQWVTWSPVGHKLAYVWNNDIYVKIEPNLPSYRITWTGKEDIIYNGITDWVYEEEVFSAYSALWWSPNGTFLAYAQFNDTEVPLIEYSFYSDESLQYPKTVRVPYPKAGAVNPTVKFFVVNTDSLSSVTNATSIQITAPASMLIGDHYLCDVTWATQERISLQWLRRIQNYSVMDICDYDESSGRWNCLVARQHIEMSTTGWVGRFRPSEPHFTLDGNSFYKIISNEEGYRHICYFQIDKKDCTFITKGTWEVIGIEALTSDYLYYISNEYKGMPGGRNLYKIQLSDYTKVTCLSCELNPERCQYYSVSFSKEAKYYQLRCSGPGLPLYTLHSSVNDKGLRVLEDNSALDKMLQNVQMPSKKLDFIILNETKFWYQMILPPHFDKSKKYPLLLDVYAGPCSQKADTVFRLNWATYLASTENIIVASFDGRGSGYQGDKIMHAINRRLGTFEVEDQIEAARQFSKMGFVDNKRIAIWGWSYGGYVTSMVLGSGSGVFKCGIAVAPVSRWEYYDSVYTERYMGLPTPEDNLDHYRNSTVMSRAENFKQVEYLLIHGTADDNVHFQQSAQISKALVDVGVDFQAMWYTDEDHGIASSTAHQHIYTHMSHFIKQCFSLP

CN(C)C(=O)N1C2CCC1CC([C@H](N)C(=O)N1[C@H](C#N)C[C@@H]3C[C@@H]31)C2 (stereo partly drawn) [Compound 1, (1S,3S,5S)-2-{(2S)-2-Amino-2-[8-(dimethylcarbamoyl)-8-aza-bicyclo[3.2.1]-oct-3-yl]-exo-ethanoyl}-2-azabicyclo[3.1.0]-hexane-3-carbonitrile trifluoro acetic acid salt]
inhibition at 0.01 µM (human recombinant DPP-IV; compound at 10 nM (primary screening)): 69% | inhibition at 0.1 µM (human recombinant DPP-IV; compound at 100 nM (primary screening)): 94.8%

CN(C)C(=O)N1C2CCC1CC([C@H](N)C(=O)N1[C@H](C#N)C[C@@H]3C[C@@H]31)C2 (stereo partly drawn) (as salt: salt) [Compound 1, (1S,3S,5S)-2-{(2S)-2-Amino-2-[8-(dimethylcarbamoyl)-8-aza-bicyclo[3.2.1]-oct-3-yl]-exo-ethanoyl}-2-azabicyclo[3.1.0]-hexane-3-carbonitrile trifluoro acetic acid salt]
melting point: 178 to 180 °C

C#C[C@H]1CC[C@@H](C#N)N1C(=O)[C@@H](N)C1CC2CCC(C1)N2C(=O)N(C)C (stereo partly drawn) [Compound 2, (2S,5R)-1-{(2S)-2-Amino-2-[8-(dimethylcarbamoyl)-8-aza-bicyclo[3.2.1]oct-3-yl]-exo-ethanoyl}-5-ethynyl-pyrrolidin-2-carbonitrile trifluoro acetic acid salt]
IC50 (human recombinant DPP-IV; 50 μM Gly-Pro-AMC, 15 min preincubation, 30 min at 30° C.): 3.3 nM | inhibition at 3 mg/kg (plasma DPP-IV; 0.5 h post dose, read-out: Plasma DPP-IV Inhibition (%) 0.5 h): 91% | inhibition at 3 mg/kg (plasma DPP-IV; 1 h post dose, read-out: Plasma DPP-IV Inhibition (%) 1 h): 85% | inhibition at 3 mg/kg (plasma DPP-IV; 2 h post dose, read-out: Plasma DPP-IV Inhibition (%) 2 h): 92% | inhibition at 3 mg/kg (plasma DPP-IV; 3 h post dose, read-out: Plasma DPP-IV Inhibition (%) 3 h): 90% | inhibition at 3 mg/kg (plasma DPP-IV; 4 h post dose, read-out: Plasma DPP-IV Inhibition (%) 4 h): 85% | inhibition at 3 mg/kg (plasma DPP-IV; 6 h post dose, read-out: Plasma DPP-IV Inhibition (%) 6 h): 72% | inhibition at 3 mg/kg (plasma DPP-IV; 8 h post dose, read-out: Plasma DPP-IV Inhibition (%) 8 h): 68% | inhibition at 3 mg/kg (plasma DPP-IV; 10 h post dose, read-out: Plasma DPP-IV Inhibition (%) 10 h): 67% | inhibition at 3 mg/kg (plasma DPP-IV; 12 h post dose, read-out: Plasma DPP-IV Inhibition (%) 12 h): 62%

C#C[C@H]1CC[C@@H](C#N)N1C(=O)[C@@H](N)C1CC2CCC(C1)N2C(=O)N(C)C (stereo partly drawn) (as salt: salt) [Compound 2, (2S,5R)-1-{(2S)-2-Amino-2-[8-(dimethylcarbamoyl)-8-aza-bicyclo[3.2.1]oct-3-yl]-exo-ethanoyl}-5-ethynyl-pyrrolidin-2-carbonitrile trifluoro acetic acid salt]
melting point: 165 to 167 °C
